Results taken from the supplement of paper PMC10307832.

Legend:
Experiment in all cases: relative viability (nuclei count vs DMSO), 5 days (fraction); higher = more cells survive
[1] = compound: CC1=C(C=CC(=C1)[N+](=O)[O-])NS(=O)(=O)C2=C(C=CC(=C2)Cl)Cl [FH535] + Cc1nc(Nc2ncc(C(=O)Nc3c(C)cccc3Cl)s2)cc(N2CCN(CCO)CC2)n1 [Dasatinib] (partner 0.075 µM)
Procedure, shortened: (§1)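 Five library-drug doses in √10 steps were combined with a fixed anchor-drug dose, or a single drug was given alone, by pin tool to lung cancer cell lines in 1536-well plates the day after seeding. Nuclei were stained and counted after 5 days. Relative viability is the nuclei count in treated wells over that in vehicle wells, taken as the median of duplicate plates.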

[2] = compound: CC1=C(C=CC(=C1)[N+](=O)[O-])NS(=O)(=O)C2=C(C=CC(=C2)Cl)Cl [FH535] + N=C(N)NC(=N)NCCc1ccccc1 [Phenformin] (partner 250 µM)
Procedure, shortened: as §1

[3] = compound: CC1=C(C=CC(=C1)[N+](=O)[O-])NS(=O)(=O)C2=C(C=CC(=C2)Cl)Cl [FH535] + CS(=O)(=O)CCNCc1ccc(-c2ccc3ncnc(Nc4ccc(OCc5cccc(F)c5)c(Cl)c4)c3c2)o1 [Lapatinib] (partner 2 µM)
Procedure, shortened: as §1

[4] = compound: CC1=C(C=CC(=C1)[N+](=O)[O-])NS(=O)(=O)C2=C(C=CC(=C2)Cl)Cl [FH535] + Cc1nc(NC(=O)N2CCC[C@H]2C(N)=O)sc1-c1ccnc(C(C)(C)C(F)(F)F)c1 [Alpelisib] (partner 2 µM)
Procedure, shortened: as §1

[5] = compound: CC1=C(C=CC(=C1)[N+](=O)[O-])NS(=O)(=O)C2=C(C=CC(=C2)Cl)Cl [FH535] + NC(=O)Nc1cc(-c2cccc(F)c2)sc1C(=O)N[C@H]1CCCNC1 [AZD7762] (partner 0.2 µM)
Procedure, shortened: as §1

Row | Cell Line | relative viability ([1]; first compound 0.04 µM) | relative viability ([1]; first compound 0.1265 µM) | relative viability ([1]; first compound 0.4 µM) | relative viability ([1]; first compound 1.265 µM) | relative viability ([2]; first compound 0.04 µM) | relative viability ([2]; first compound 0.1265 µM) | relative viability ([2]; first compound 0.4 µM) | relative viability ([2]; first compound 1.265 µM) | relative viability ([3]; first compound 0.04 µM) | relative viability ([3]; first compound 0.1265 µM) | relative viability ([3]; first compound 0.4 µM) | relative viability ([3]; first compound 1.265 µM) | relative viability ([4]; first compound 0.04 µM) | relative viability ([4]; first compound 0.1265 µM) | relative viability ([4]; first compound 0.4 µM) | relative viability ([4]; first compound 1.265 µM) | relative viability ([5]; first compound 0.04 µM) | relative viability ([5]; first compound 0.1265 µM) | relative viability ([5]; first compound 0.4 µM) | relative viability ([5]; first compound 1.265 µM)
1 | NCI-H2085 | 0.271 | 0.174 | 0.284 | 0.217 | 0.687 | 0.65 | 0.585 | 0.451 | 0.744 | 0.686 | 0.692 | 0.573 | 0.959 | 0.977 | 0.941 | 0.675 | 1.03 | 1.06 | 0.783 | 0.828
2 | NCI-H2087 | 0.685 | 0.711 | 0.714 | 0.675 | 0.425 | 0.398 | 0.286 | 0.155 | 0.918 | 0.825 | 0.868 | 0.6 | 1.11 | 1.04 | 0.887 | 0.613 | 1.24 | 1.21 | 1.17 | 0.78
3 | NCI-H2126 | 0.598 | 0.573 | 0.49 | 0.292 | 0.525 | 0.53 | 0.457 | 0.348 | 0.734 | 0.679 | 0.696 | 0.676 | 0.744 | 0.744 | 0.718 | 0.626 | 0.973 | 1.05 | 0.857 | 0.874
4 | NCI-H2170 | 0.664 | 0.611 | 0.429 | 0.625 | 0.394 | 0.416 | 0.319 | 0.28 | 0.26 | 0.332 | 0.265 | 0.254 | 0.853 | 0.965 | 0.784 | 0.769 | 0.897 | 1.06 | 0.809 | 0.815
5 | NCI-H2347 | 0.298 | 0.292 | 0.294 | 0.261 | 0.409 | 0.332 | 0.425 | 0.27 | 0.979 | 0.664 | 0.971 | 0.781 | 1.01 | 1.09 | 0.966 | 0.837 | 0.696 | 0.819 | 0.764 | 0.761
6 | NCI-H2405 | 0.202 | 0.243 | 0.232 | 0.221 | 0.395 | 0.378 | 0.344 | 0.331 | 0.934 | 1.13 | 0.963 | 0.734 | 0.685 | 0.843 | 0.84 | 0.585 | 0.665 | 0.794 | 0.641 | 0.5
7 | NCI-H3122 | 0.703 | 0.782 | 0.713 | 0.719 | 0.374 | 0.344 | 0.286 | 0.164 | 1.01 | 0.978 | 0.999 | 0.89 | 0.715 | 0.782 | 0.829 | 0.745 | 1.03 | 0.98 | 0.984 | 0.933
8 | PC-3 [JPC-3] | 1.05 | 0.812 | 0.837 | 0.749 | 0.448 | 0.405 | 0.37 | 0.372 | 0.405 | 0.39 | 0.444 | 0.39 | 1 | 1.07 | 0.951 | 0.686 | 0.773 | 0.83 | 0.656 | 0.508
9 | PC-14 | 0.282 | 0.287 | 0.251 | 0.245 | 0.571 | 0.708 | 0.516 | 0.331 | 0.365 | 0.318 | 0.376 | 0.313 | 0.88 | 0.967 | 0.94 | 0.925 | 0.357 | 0.416 | 0.245 | 0.349
10 | RERF-LC-KJ | 0.845 | 0.805 | 0.747 | 0.502 | 0.38 | 0.429 | 0.406 | 0.308 | 0.916 | 0.884 | 0.824 | 0.714 | 0.739 | 0.822 | 0.921 | 0.751 | 0.905 | 1.02 | 0.931 | 0.704
